Data: PMC5387716, “Discovery of monocarbonyl curcumin-BTP hybrids as STAT3 inhibitors for drug-sensitive and drug-resistant breast cancer therapy” (Scientific Reports, 2017)
Where two headings read alike, the source gives them in different places.

Tests used:
MCF-7 cells = assay: MTT anti-proliferative assay, MCF-7; format: cell-based, human; conditions: read-out: MCF-7 IC50 ± SD
Experimental: (§1) All cell lines were purchased from Cell Bank of Shanghai Institute of Biochemistry and Cell Biology, Chinese Academy of Sciences (Shanghai, China). Human breast carcinoma cells (MCF-7 and MCF-7/DOX), breast epithelial cells (MCF-10A) and normal human liver cells (LO2) were maintained in RPMI-1640 medium. All cells were supplemented with 12% fetal bovine serum containing 50 μg/ml penicillin and 50 μg/ml streptomycin. Cells were grown to 80% confluency in a tissue culture flask at 37 °C in a humidified atmosphere containing 5% CO2, and then were trypsinized with 1 × Trypsin-Versene and split. The MCF-7/DOX cell line we used was established from its parental cell line MCF-7 cell by gradually increasing the concentration of DOX to which the cells were exposed in a stepwise manner over a period of 8 months. […] The cells were incubated in drug-free medium for at least 1 week before use.
(§2) Cells (MCF-7, MCF-7/DOX, MCF-10A, LO2) were seeded in 96-well plates at a density of 3,000–6,000 cells per well. The cells were incubated overnight (16 h) in a humidified 5% CO2 incubator at 37 °C. After media removal, different concentrations of test compounds were added in triplicate to the plates in 200 μL of fresh media and were incubated with the cells at 37 °C for 48 h. […] Cell viability was evaluated using 3-(4, 5-dimethylthiazolyl)-2,5-diphenyltetrazoliumbromide (MTT). The absorbance was read by an ELISA reader (SpectraMax Plus384, Molecular Devices, Sunnyvale, CA) at a test wavelength of 570 nm and a reference wavelength of 630 nm. Cell viability was calculated using the following formula: […]

MCF-7/DOX cells = assay: MTT anti-proliferative assay, MCF-7/DOX; format: cell-based, human; conditions: for IC50: MTT, 48 h, read-out: MCF-7/DOX IC50 ± SD
Experimental: as §1, §2

MCF-10A cells = assay: MTT anti-proliferative assay, MCF-10A; format: cell-based, human; conditions: Homo sapiens, MCF-10A, 48 h, normal breast epithelial cells, Table 2 prints no unit, μM
Experimental: as §1, §2

LO2 cells = assay: MTT anti-proliferative assay, LO2; format: cell-based; conditions: Homo sapiens, L02, 48 h, normal human liver cells, Table 2 prints no unit, μM
Experimental: as §1, §2

Compound | IC50 (MCF-7 cells; Homo sapiens, MCF7, 48 h) [nM] | melting point [°C] | IC50 (MCF-7/DOX cells; Homo sapiens, MCF7-DOX) [nM] | IC50 (MCF-7 cells; 48 h) [nM] | IC50 (MCF-7/DOX cells) [nM] | IC50 (MCF-10A cells) [µM] | IC50 (LO2 cells) [µM] | resistance to DOX compared with parental DOX-sensitive cells (MCF-7/DOX cells; MCF-7/DOX vs MCF-7) [fold]
COc1ccc(/C=C/C(=O)N2CCN(C(=O)C3=Cc4cc(Br)ccc4S3(=O)=O)CC2)cc1OC [Compound 6a, (E)-1-(4-(5-bromo-1,1-dioxidobenzo[b]thiophene-2-carbonyl)piperazin-1-yl)-3-(3,4-dimethoxyphenyl)prop-2-en-1-one] | 710 ± 140 | 244 to 246 | 1820 ± 190 |  |  |  |  | 
O=C(/C=C/c1ccc(Br)cc1)N1CCN(C(=O)C2=Cc3ccc(Br)cc3S2(=O)=O)CC1 [Compound 6r, (E)-1-(4-(6-bromo-1,1-dioxidobenzo[b]thiophene-2-carbonyl)piperazin-1-yl)-3-(4-bromophenyl)prop-2-en-1-one] | 1600 ± 130 | 215 to 217 | 2610 ± 820 |  |  |  |  | 
COc1cc(/C=C/C(=O)N2CCN(C(=O)C3=Cc4ccc(Br)cc4S3(=O)=O)CC2)cc(OC)c1O [Compound 6o, (E)-1-(4-(6-bromo-1,1-dioxidobenzo[b]thiophene-2-carbonyl)piperazin-1-yl)-3-(4-hydroxy-3,5-dimethoxyphenyl)prop-2-en-1-one] | 2900 ± 360 | 112 to 114 | 9490 ± 2800 |  |  |  |  | 
COc1ccc(/C=C/C(=O)N2CCN(C(=O)C3=Cc4ccc(Br)cc4S3(=O)=O)CC2)cc1 [Compound 6m, (E)-1-(4-(6-bromo-1,1-dioxidobenzo[b]thiophene-2-carbonyl)piperazin-1-yl)-3-(4-methoxyphenyl)prop-2-en-1-one] | 990 ± 70 | 220 to 222 | 380 ± 10 |  |  |  |  | 
(E)-1-(4-(5-bromo-1,1-dioxidobenzo[b]thiophene-2-carbonyl)piperazin-1-yl)-3-(4-fluorophenyl)prop-2-en-1-one [Compound 6v] |  |  |  | 1450 ± 170 | 2140 ± 270 |  |  | 
O=C(/C=C/c1ccccn1)N1CCN(C(=O)C2=Cc3ccc(Br)cc3S2(=O)=O)CC1 [Compound 6q, (E)-1-(4-(6-bromo-1,1-dioxidobenzo[b]thiophene-2-carbonyl)piperazin-1-yl)-3-(pyridin-2-yl)prop-2-en-1-one] | 1480 ± 190 | 97 to 99 | 4420 ± 170 |  |  |  |  | 
COc1cc(/C=C/C(=O)N2CCN(C(=O)C3=Cc4cc(Br)ccc4S3(=O)=O)CC2)cc(OC)c1O [Compound 6d, (E)-1-(4-(5-bromo-1,1-dioxidobenzo[b]thiophene-2-carbonyl)piperazin-1-yl)-3-(4-hydroxy-3,5-dimethoxyphenyl)prop-2-en-1-one] | 2250 ± 350 | 125 to 127 | 2270 ± 600 |  |  |  |  | 
O=C(/C=C/c1ccccc1O)N1CCN(C(=O)C2=Cc3ccc(Br)cc3S2(=O)=O)CC1 [Compound 6p, (E)-1-(4-(6-bromo-1,1-dioxidobenzo[b]thiophene-2-carbonyl)piperazin-1-yl)-3-(2-hydroxy)prop-2-en-1-one] | 4000 ± 910 | > 250 | 3780 ± 140 |  |  |  |  | 
O=C(/C=C/c1ccc(C(F)(F)F)cc1)N1CCN(C(=O)C2=Cc3cc(Br)ccc3S2(=O)=O)CC1 [Compound 6i, (E)-1-(4-(5-bromo-1,1-dioxidobenzo[b]thiophene-2-carbonyl)piperazin-1-yl)-3-(4-(trifluoromethyl)phenyl)prop-2-en-1-one] | 670 ± 140 | 245 to 247 | 870 ± 120 |  |  |  |  | 
O=C(/C=C/c1ccc(Br)cc1)N1CCN(C(=O)C2=Cc3cc(Br)ccc3S2(=O)=O)CC1 [Compound 6g, (E)-1-(4-(5-bromo-1,1-dioxidobenzo[b]thiophene-2-carbonyl)piperazin-1-yl)-3-(4-bromophenyl)prop-2-en-1-one] | 2080 ± 60 | > 250 | 1180 ± 70 |  |  |  |  | 
COc1ccc(/C=C/C(=O)N2CCN(C(=O)C3=Cc4ccc(Br)cc4S3(=O)=O)CC2)cc1OC [Compound 6l, (E)-1-(4-(6-bromo-1,1-dioxidobenzo[b]thiophene-2-carbonyl)piperazin-1-yl)-3-(3,4-dimethoxyphenyl)prop-2-en-1-one] | 1250 ± 140 | 222 to 224 | 1770 ± 120 |  |  |  |  | 
COc1cc(/C=C/C(=O)N2CCN(C(=O)C3=Cc4cc(Br)ccc4S3(=O)=O)CC2)cc(OC)c1OC [Compound 6c, (E)-1-(4-(5-bromo-1,1-dioxidobenzo[b]thiophene-2-carbonyl)piperazin-1-yl)-3-(3,4,5-trimethoxyphenyl)prop-2-en-1-one] | 1230 ± 80 | 94 to 96 | 860 ± 130 |  |  |  |  | 
O=C(/C=C/c1ccc(F)cc1)N1CCN(C(=O)C2=Cc3cc(Br)ccc3S2(=O)=O)CC1 [Compound 6k, (E)-1-(4-(5-bromo-1,1-dioxidobenzo[b]thiophene-2-carbonyl)piperazin-1-yl)-3-(4-fluorophenyl)prop-2-en-1-one] | 1500 ± 180 | > 250 | 2440 ± 570 |  |  |  |  | 
O=C(/C=C/c1ccc(Cl)cc1)N1CCN(C(=O)C2=Cc3cc(Br)ccc3S2(=O)=O)CC1 [Compound 6h, (E)-1-(4-(5-bromo-1,1-dioxidobenzo[b]thiophene-2-carbonyl)piperazin-1-yl)-3-(4-chlorophenyl)prop-2-en-1-one] | 2020 ± 200 | 225 to 227 | 720 ± 130 |  |  |  |  | 
(E)-1-(4-(6-bromo-1,1-dioxidobenzo[b]thiophene-2-carbonyl)piperazin-1-yl)-3-(4-hydroxy-3-methoxyphenyl)prop-2-en-1-one [Compound 6u] |  |  |  | 1440 ± 110 | 550 ± 10 |  |  | 
O=C(/C=C/c1ccc(Cl)cc1)N1CCN(C(=O)C2=Cc3ccc(Br)cc3S2(=O)=O)CC1 [Compound 6s, (E)-1-(4-(6-bromo-1,1-dioxidobenzo[b]thiophene-2-carbonyl)piperazin-1-yl)-3-(4-chlorophenyl)prop-2-en-1-one] | 1600 ± 90 | 225 to 227 | 2230 ± 160 |  |  |  |  | 
(E)-1-(4-(6-bromo-1,1-dioxidobenzo[b]thiophene-2-carbonyl)piperazin-1-yl)-3-(3-hydroxy-4-methoxyphenyl)prop-2-en-1-one [Compound 6t] |  |  |  | 3030 ± 220 | 2020 ± 340 |  |  | 
(E)-1-(4-(5-bromo-1,1-dioxidobenzo[b]thiophene-2-carbonyl)piperazin-1-yl)-3-(4-hydroxy-3-methoxyphenyl)prop-2-en-1-one [Compound 6j] |  |  |  | 860 ± 90 | 1000 ± 760 |  |  | 
O=C(/C=C/c1ccc([N+](=O)[O-])cc1)N1CCN(C(=O)C2=Cc3cc(Br)ccc3S2(=O)=O)CC1 [Compound 6e, (E)-1-(4-(5-bromo-1,1-dioxidobenzo[b]thiophene-2-carbonyl)piperazin-1-yl)-3-(4-nitrophenyl)prop-2-en-1-one] | 1180 ± 80 | > 250 | 1080 ± 140 |  |  |  |  | 
O=C(/C=C/c1ccccn1)N1CCN(C(=O)C2=Cc3cc(Br)ccc3S2(=O)=O)CC1 [Compound 6f, (E)-1-(4-(5-bromo-1,1-dioxidobenzo[b]thiophene-2-carbonyl)piperazin-1-yl)-3-(pyridin-2-yl)prop-2-en-1-one] | 1080 ± 60 | 241 to 242 | 1890 ± 270 |  |  |  |  | 
COc1cc(/C=C/C(=O)N2CCN(C(=O)C3=Cc4ccc(Br)cc4S3(=O)=O)CC2)cc(OC)c1OC [Compound 6n, (E)-1-(4-(6-bromo-1,1-dioxidobenzo[b]thiophene-2-carbonyl)piperazin-1-yl)-3-(3,4,5-trimethoxyphenyl)prop-2-en-1-one] | 2620 ± 130 | 81 to 85 | 2880 ± 570 |  |  |  |  | 
COc1cccc2c1C(=O)c1c(O)c3c(c(O)c1C2=O)C[C@@](O)(C(=O)CO)C[C@@H]3O[C@H]1C[C@H](N)[C@H](O)[C@H](C)O1 [DOX, doxorubicin, reference compound] | 980 ± 80 |  | 64700 ± 3800 |  |  | 0.98 ± 0.17 | 0.82 ± 0.12 | 66.02
